Results on 103 compounds are retold here after PubChem BioAssay AID1996.

Converted amounts (≈) assume the structure as drawn.

The term kinetic solubility denotes solubility judged after dilution from a stock solution rather than from solid.

For the data set the following is noted: buffer; pH 7.4; 200.0 µM.
In turn, `Cc1cccc(N2C(=O)c3ccc(Br)cc3C2=O)n1` returned a solubility (kinetic) greater than 47.6 µg/mL.
For `Cc1[nH]cnc1C(=O)N/N=C/c1c(Cl)cccc1Cl` the value was greater than 44.6 µg/mL; for `Nc1ncc(CCN2CCOCC2)c(-c2ccc(F)cc2)n1`, greater than 45.4 µg/mL.
In the case of `O=C(Nc1cccc(C(F)(F)F)c1)OCc1ccncc1` it was 12.4 µg/mL (≈ 41.9 µM).
For `COc1cccc(NC(=O)NCCN2CCCCC2)c1` the value was 37.8 µg/mL (≈ 136 µM); for `CCOCCCNC(=O)c1c[nH]c2ccc(OCC)cc2c1=O`, 31.4 µg/mL (≈ 98.6 µM).
In turn, `Cc1cccnc1Nc1ncnc(N)c1[N+](=O)[O-]` registered a solubility (kinetic) of 36.3 µg/mL (≈ 147 µM).
In the case of `CCN(CC)c1ccc(C=Nc2ccc(C)cc2C)c(O)c1` it was 6.4 µg/mL (≈ 21.6 µM); in that of `NC(=O)c1c(NC(=O)c2ccncc2)sc2c1CCCCCC2`, 7 µg/mL (≈ 21.2 µM); in that of `O=C(Nc1ccccc1N1CCCCC1)c1ccc(OC(F)F)cc1`, 0.7 µg/mL (≈ 2.02 µM).
Regarding `COc1ccc(CNC(=O)C2CCN(S(C)(=O)=O)CC2)cc1`, the kinetic solubility amounted to 45.2 µg/mL (≈ 138 µM).
In the case of `O=C(NC1CCSc2ccccc21)c1ccccc1Br` (stereo not drawn) it was 8.6 µg/mL (≈ 24.7 µM).
In the case of `CCCCOc1ccc(CSC(=N)N)cc1Cl.Cl` it was 40.6 µg/mL.
For `CC(C)(C)c1ccc(OCC(O)CN2CCCC2)cc1.Cl` (stereo not drawn), the kinetic solubility was greater than 47.1 µg/mL.
For `Cc1cccc(NP(=O)(Oc2ccccc2)Oc2ccccc2)c1C` the value was less than 0.8 µg/mL; for `Cc1ccc(C(=O)N[C@H](C(=O)NC2CCCCC2)C(C)C)cc1`, 8 µg/mL (≈ 25.3 µM).
For `CCOc1ccc(CN2C(=O)c3ccccc3C2=O)cc1C(=O)O` the value was greater than 48.8 µg/mL.
As for `Fc1cccc(C2CCCCN2Cc2nc(C3CC3)no2)c1` (stereo not drawn), the solubility (kinetic) was found to be 17.1 µg/mL (≈ 56.7 µM).
As for `Cc1ccc2oc(=O)n(CCOc3ccccc3C)c2c1`, the solubility (kinetic) was less than 0.6 µg/mL.
As to `Cc1cc(-c2ccc([N+](=O)[O-])cc2)nc2ccccc12.Cl`, the solubility (kinetic) amounted to 1 µg/mL.
`CCN(CC)C(=O)Cn1c(=O)oc2ccccc21` gave a solubility (kinetic) greater than 37.2 µg/mL.
In the case of `COc1ccc(-n2c(C)nnc2SCC(=O)NC2CC2)cc1` it was greater than 47.8 µg/mL; in that of `CS(=O)(=O)c1ccc(C(=O)OCC(=O)NCc2cccs2)cc1[N+](=O)[O-]`, 16.1 µg/mL (≈ 40.4 µM); in that of `CCOC(=O)c1cc(-c2csc(-c3ccc(C(F)(F)F)cc3)n2)on1`, less than 0.4 µg/mL.
For `Cc1ccc(C(=O)Nc2ccccc2N2CCCC2)s1` the value was greater than 43 µg/mL; for `COCc1cc(=O)[nH]c(SCC(=O)N2CCOCC2)n1`, greater than 44.9 µg/mL; for `Cc1ccccc1NC(=O)CCOc1ccccc1`, greater than 38.3 µg/mL.
For the compound `c1ccc2c(c1)Cc1cc3ccccc3nc1-2`, the solubility (kinetic) worked out at 4.3 µg/mL (≈ 19.8 µM).
In turn, `CCOC(=O)N1CCC(N2CCN(c3ccccc3)CC2)CC1.Cl` showed a kinetic solubility of 51.1 µg/mL.
In the case of `CC1CCN(CC(=O)Nc2ccc(Cl)cc2[N+](=O)[O-])CC1` it was 0.9 µg/mL (≈ 2.89 µM).
`COc1ccc(-c2cc(C(=O)OCC(=O)N3CCCCC3)c3ccccc3n2)cc1OC` returned a kinetic solubility of 13.8 µg/mL (≈ 31.8 µM).
For `O=C(Nc1ccc2c(c1)OCCO2)c1cccnc1Oc1ccccc1` the value was 4 µg/mL (≈ 11.5 µM); for `CC(=Nc1ccccc1O)c1sc2ccccc2c1O`, less than 0.6 µg/mL.
In the case of `O=C(c1cc(O)c(O)c([N+](=O)[O-])c1)c1ccccc1F` it was greater than 41.6 µg/mL.
In the case of `O=C(NC1C2CC3CC(C2)CC1C3)c1ccc(Br)o1` (stereo not drawn) it was 27.8 µg/mL (≈ 85.7 µM).
In the case of `Cc1cccc(NC(=O)c2cccc(N3C(=O)C4C5C=CC(C6CC56)C4C3=O)c2)c1` (stereo not drawn), the solubility (kinetic) amounted to 1.5 µg/mL (≈ 3.76 µM). Against the preceding compound, the solubility kinetic is about 19-fold lower.
In the case of `CN(C)c1ccc(CNS(=O)(=O)c2csc(C(N)=O)c2)cc1` it was greater than 50.9 µg/mL; in that of `CCS(=O)(=O)N1CCC(N2CCN(c3ccccc3)CC2)CC1`, 49.6 µg/mL (≈ 147 µM); in that of `CC1(C)CC(=O)C(C2=NC3(CCCCC3)Cc3ccccc32)=C(O)C1`, greater than 50.6 µg/mL.
`Cc1ccc(-c2c(NCCc3ccccc3)c(=O)c2=O)cc1` returned a kinetic solubility of less than 0.6 µg/mL.
Regarding `N#CCC(=O)N1CCN(Cc2ccc3c(c2)OCO3)CC1`, the kinetic solubility was 1.6 µg/mL (≈ 5.57 µM).
In turn, `O=C(/C=C/c1ccccc1Cl)Nc1cccnc1` gave a solubility (kinetic) of 27 µg/mL (≈ 104 µM). This solubility kinetic is about 17-fold higher than that of the compound before.
Regarding `Cc1cccc(-c2noc(CNC(=O)COc3ccccc3C)n2)c1`, the kinetic solubility is 1.2 µg/mL (≈ 3.56 µM).
`O=C(NN1CCOCC1)c1cccc(F)c1` had a solubility (kinetic) greater than 33.6 µg/mL.
Take `Cc1cccc(C(=O)NCC(=O)NC2CCC(C)CC2)c1` (stereo not drawn): the kinetic solubility came to 10.5 µg/mL (≈ 36.4 µM).
In the case of `COc1cccc(C(=O)Nc2c[nH]c(=O)[nH]c2=O)c1` it was 36.1 µg/mL (≈ 138 µM); in that of `CCn1c(CNC(=O)c2ccccc2F)cc2cc(C)ccc21`, 0.8 µg/mL (≈ 2.58 µM).
In the case of `CCC(OC(=O)CN1C(=O)c2ccccc2C1=O)C(=O)NC1CCCC1` (stereo not drawn) it was 52.1 µg/mL (≈ 145 µM); in that of `O=Cc1ccc(OCC(=O)NCC2CCCO2)cc1` (stereo not drawn), 36.4 µg/mL (≈ 138 µM); in that of `N#C/C(=C\c1ccc(F)cc1)C(=O)Nc1ccccn1`, 19 µg/mL (≈ 71.1 µM).
In the case of `O=C(CSc1ccc2ccccc2n1)NC1CC1` it was 38 µg/mL (≈ 147 µM); in that of `Cl.c1ccc(CNCc2ccco2)cc1`, 33.5 µg/mL; in that of `O=C(O)c1cccc(-n2c(/C=C/c3ccccc3)nc3ccccc3c2=O)c1`, greater than 55.3 µg/mL.
Compound `CCC(=O)NC1OC(CO)C(O)C(O)C1O` (stereo not drawn) had a solubility (kinetic) greater than 35.3 µg/mL.
For `COc1ccc(C)cc1NC(=S)N1CC(C)OC(C)C1` (stereo not drawn) the value was greater than 44.2 µg/mL.
In the case of `Cc1cc(NCC2CCCCC2)nc2ccccc12` it was 21.4 µg/mL (≈ 84.1 µM); in that of `Fc1ccc(-c2csc(NC(=S)Nc3ccccc3)n2)cc1`, 1.6 µg/mL (≈ 4.86 µM).
`Cc1ccc(NC(=O)C(C)NC(=O)OCc2ccccc2)cc1C` (stereo not drawn): the kinetic solubility was found to be 2.4 µg/mL (≈ 7.35 µM).
For `CC(=O)N1CCN(S(=O)(=O)c2cccc(C(=O)NCc3ccc(F)cc3)c2)CC1` the value was greater than 62.9 µg/mL; for `O=C(c1ccccc1)N1CCN(S(=O)(=O)N2CCOCC2)CC1`, 46 µg/mL (≈ 136 µM).
For the compound `CC(CCc1ccccc1)NCC(O)c1cccc([N+](=O)[O-])c1.Cl` (stereo not drawn), the kinetic solubility was greater than 52.6 µg/mL.
For `COc1ccccc1CC(=O)Nc1ccc2c(c1)OC1(CCCC1)O2` the value was 35.7 µg/mL (≈ 105 µM).
For `O=C(NCC(=O)N1CCOCC1)c1ccc(Cl)cc1` the value was greater than 42.4 µg/mL; for `CCOC(=O)C(=O)N1CCC(C(=O)OCC)CC1`, greater than 38.6 µg/mL.
In the case of `Cc1cccc(CNCCc2c[nH]c3ccccc23)c1.O=C(O)C(=O)O` it was greater than 53.2 µg/mL; in that of `C=CCC1(Nc2ccccc2)CC(C)N(C)CC1C.O=C(O)C(=O)O` (stereo not drawn), greater than 52.3 µg/mL.
As for `Cc1ccccc1C(=O)Nc1c(C)[nH]c(=O)[nH]c1=O`, the solubility (kinetic) is greater than 38.9 µg/mL.
As to `CC1c2cccn2CCN1S(=O)(=O)c1ccccc1` (stereo not drawn), the solubility (kinetic) came to 40.3 µg/mL (≈ 146 µM).
The compound `O=C1CCN(S(=O)(=O)c2ccc(Cl)cc2)CCN1` came in with a kinetic solubility greater than 43.3 µg/mL.
Regarding `O=C(CN1CCCCC1)Nc1ccccc1Oc1ccccc1`, the kinetic solubility turned out to be 5.6 µg/mL (≈ 18 µM).
For `CCCN1CCN(S(=O)(=O)c2ccc3c(c2)CCC(=O)N3)CC1`, the kinetic solubility is greater than 50.6 µg/mL.
Consider `CC(C)(C)NC(=O)NCc1cccnc1`, for which the solubility (kinetic) amounted to 29.4 µg/mL (≈ 142 µM).
In the case of `Cc1ccc(NCCC(=O)c2cccc([N+](=O)[O-])c2)c(C)c1` it was 1.7 µg/mL (≈ 5.7 µM).
Take `Cn1c(N)c(C(=O)COC(=O)c2ccc(-c3ccccc3)cc2)c(=O)n(C)c1=O`: the solubility (kinetic) turned out to be 6.8 µg/mL (≈ 17.3 µM).
In the case of `COc1cccc(-c2cc(C(=O)NC3CC3)c3ccccc3n2)c1` it was 5.6 µg/mL (≈ 17.6 µM).
`O=C(c1cccc2c1-c1ccccc1C2)N1CCCCC1` had a kinetic solubility greater than 41.6 µg/mL.
In the case of `Cc1cc(NC(=O)CN2C(=O)NC(CCc3ccccc3)C2=O)no1` (stereo not drawn) it was greater than 51.4 µg/mL.
`CCN(CC)c1ccc(C(=O)OCC(=O)Nc2ncccn2)cc1` returned a solubility (kinetic) of 2.4 µg/mL (≈ 7.31 µM).
For `COc1cccc(OC)c1OCCN1CCCC1` the value was 32.4 µg/mL (≈ 129 µM); for `CC1CCC(NCCNC(=O)c2ccco2)CC1` (stereo not drawn), 26.7 µg/mL (≈ 107 µM); for `COc1ccccc1C(=O)NC1CCCc2ccccc21` (stereo not drawn), 33.2 µg/mL (≈ 118 µM).
In turn, `Cn1c(CN2CCN(CCO)CC2)c(C#N)c2ccccc21` gave a solubility (kinetic) greater than 44.8 µg/mL.
Turning to `Cc1ccc(OCC(=O)OCC(=O)NC2CC2)cc1C`, the kinetic solubility is greater than 41.6 µg/mL.
For `CC(C)CN1CCCC(N2CCN(c3cccc(Cl)c3)CC2)C1` (stereo not drawn) the value was 39.8 µg/mL (≈ 118 µM).
Compound `COc1ccc(CCNC(=O)C(=O)NCC2CCNCC2)cc1OC` returned a kinetic solubility greater than 52.4 µg/mL.
In the case of `CC(=O)Nc1ccc(S(=O)(=O)N2CC(=O)NC(=O)C2)cc1` it was greater than 46.7 µg/mL; in that of `CC(C)NC(=O)c1cccc2c1-c1ccccc1C2=O`, 13.3 µg/mL (≈ 50.1 µM).
For `O=C(NCC1CCCO1)c1ccc(N2C(=O)C3CCCCC3C2=O)cc1` (stereo not drawn) the value was 44.9 µg/mL (≈ 126 µM).
`O=C(NC1CCCCCC1)C1CC(=O)N(c2ccc(Cl)cc2)C1` (stereo not drawn) yielded a kinetic solubility of 6.3 µg/mL (≈ 18.8 µM).
Regarding `Nn1c(SCC(=O)NC2CCS(=O)(=O)C2)nnc1-c1ccco1` (stereo not drawn), the kinetic solubility was greater than 53.6 µg/mL.
As to `COc1ccc(C(=O)C[n+]2ccc(N(C)C)cc2)cc1.[Cl-]`, the kinetic solubility is greater than 46 µg/mL.
For `N#CC1CCN(c2ncccc2[N+](=O)[O-])CC1` the value was greater than 34.8 µg/mL.
With `Cc1cc(=O)[nH]c2ccc(S(=O)(=O)NCc3ccccc3)cc12`, the kinetic solubility is 2.5 µg/mL (≈ 7.61 µM).
In the case of `CN1C(=O)CN=C(c2ccccc2Cl)c2cc(Br)ccc21` it was 51.9 µg/mL (≈ 143 µM); in that of `O=C1/C(=C\c2cccc(O)c2)SC(=S)N1Cc1ccccc1`, less than 0.7 µg/mL.
For `Cc1ccc(NC(=O)COC(=O)Cc2ccccc2)cc1S(=O)(=O)N1CCOCC1` the value was 58.1 µg/mL (≈ 134 µM); for `Cc1ccc(F)cc1NC(=O)CCOc1ccccc1`, 8.3 µg/mL (≈ 30.4 µM); for `COCCCNc1ncnc2c1sc1nc(-c3ccco3)c3c(c12)CC(C)(C)OC3`, 1.3 µg/mL (≈ 3.06 µM).
For `O=C(O)CC(C(=O)Nc1ccc(F)cc1)C1CCCO1` (stereo not drawn) the value was greater than 42.2 µg/mL; for `CCCN1C(=O)C2(SC(NC(C)=O)=NN2C(C)=O)c2cc(C)cc(C)c21` (stereo not drawn), greater than 56.2 µg/mL; for `COc1cc(NC(=O)/C=C/c2ccccc2)c(C(=O)O)cc1OC`, greater than 49.1 µg/mL.
As for `O=C(NCc1ccccc1)c1ccc2c(c1)C(=O)N(Cc1cccnc1)C2=O`, the solubility (kinetic) is 38.1 µg/mL (≈ 103 µM).
The compound `Cc1cc(C)nc(NC(=O)c2ccc(C)o2)n1` showed a kinetic solubility greater than 34.7 µg/mL.
